Measured values from the supplement of paper PMC10307832.

How the values were obtained:
Experiment in all cases: relative viability (nuclei count vs DMSO), 5 days (fraction); higher = more cells survive
[1] = compound: C1=CC2=NC=CN=C2C=C1/C=C/3\C(=O)NC(=O)S3 + Nc1ncn([C@H]2C[C@H](O)[C@@H](CO)O2)c(=O)n1 [Decitabine] (partner 2 µM)
How it was run: (§1)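 Lung cancer cell lines were seeded in 1536-well plates and dosed by pin tool the next day, with either a single drug or a fixed anchor-drug dose combined with five library-drug doses (not always all listed) spaced in √10 steps. Five days later, one step fixed the cells and stained their nuclei (final 0.05% Triton X-100, 1% formaldehyde, 1 ug/ml Hoechst), and nuclei were counted on 4× images. Relative viability is the nuclei count in treated wells divided by the count in vehicle wells, and each value is the median of duplicate plates.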

[2] = compound: C1=CC2=NC=CN=C2C=C1/C=C/3\C(=O)NC(=O)S3 + O=C(CCCCCCC(=O)Nc1ccccc1)NO [Vorinostat] (partner 1 µM)
How it was run: as §1

BGJ398 + Lapatinib = compound: CCN1CCN(c2ccc(Nc3cc(N(C)C(=O)Nc4c(Cl)c(OC)cc(OC)c4Cl)ncn3)cc2)CC1 [BGJ398] + CS(=O)(=O)CCNCc1ccc(-c2ccc3ncnc(Nc4ccc(OCc5cccc(F)c5)c(Cl)c4)c3c2)o1 [Lapatinib] (partner 2 µM)
How it was run: as §1

BGJ398 + Alpelisib = compound: CCN1CCN(c2ccc(Nc3cc(N(C)C(=O)Nc4c(Cl)c(OC)cc(OC)c4Cl)ncn3)cc2)CC1 [BGJ398] + Cc1nc(NC(=O)N2CCC[C@H]2C(N)=O)sc1-c1ccnc(C(C)(C)C(F)(F)F)c1 [Alpelisib] (partner 2 µM)
How it was run: as §1

Cell Line	relative viability ([1]; first compound 0.02 µM)	relative viability ([1]; first compound 0.06325 µM)	relative viability ([1]; first compound 0.2 µM)	relative viability ([1]; first compound 0.6325 µM)	relative viability ([1]; first compound 2 µM)	relative viability ([2]; first compound 0.02 µM)	relative viability ([2]; first compound 0.06325 µM)	relative viability ([2]; first compound 0.2 µM)	relative viability ([2]; first compound 0.6325 µM)	relative viability ([2]; first compound 2 µM)	relative viability (BGJ398 + Lapatinib; first compound 0.01 µM)	relative viability (BGJ398 + Lapatinib; first compound 0.03162 µM)	relative viability (BGJ398 + Lapatinib; first compound 0.1 µM)	relative viability (BGJ398 + Lapatinib; first compound 0.3162 µM)	relative viability (BGJ398 + Lapatinib; first compound 1 µM)	relative viability (BGJ398 + Alpelisib; first compound 0.01 µM)	relative viability (BGJ398 + Alpelisib; first compound 0.03162 µM)	relative viability (BGJ398 + Alpelisib; first compound 0.1 µM)	relative viability (BGJ398 + Alpelisib; first compound 0.3162 µM)	relative viability (BGJ398 + Alpelisib; first compound 1 µM)
HCC-78	0.703	0.578	0.668	0.594	0.525	0.464	0.428	0.379	0.449	0.349	0.568	1.04	1	0.707	0.581	0.274	0.311	0.378	0.366	0.338
HCC-366	0.284	–	0.386	0.306	0.276	0.293	–	0.436	0.305	0.204	1.11	1.07	1.07	1.06	0.924	0.417	0.478	0.676	0.404	0.348
HCC-827	0.259	0.343	0.345	0.392	0.33	0.797	0.702	0.833	0.874	0.465	0.244	–	0.163	0.173	0.2	0.821	–	1.1	0.962	1.05
HOP-62	0.188	0.278	0.215	0.191	0.254	0.571	0.694	0.732	0.581	0.571	0.965	1.16	1.18	1.02	1.04	0.721	1.02	0.824	0.861	0.984
IA-LM	–	–	–	–	–	0.884	0.467	0.964	0.985	0.968	0.864	0.742	0.846	0.704	0.758	0.541	0.898	0.733	0.625	0.702
LC-2-ad	0.781	0.862	0.84	0.86	0.727	0.589	0.768	0.707	0.668	0.434	0.937	1.02	1	0.978	0.912	0.926	0.871	0.924	0.968	0.915
LCLC-97TM1	0.293	0.244	0.229	0.247	0.221	0.617	0.637	0.659	0.576	0.153	0.525	0.745	0.901	0.979	0.868	0.233	0.269	0.231	0.214	0.265
LCLC-103H	0.71	0.798	0.707	0.747	0.709	0.694	0.804	0.846	0.685	0.651	–	–	–	–	–	1.03	0.954	0.991	0.975	0.778
LK-2	0.285	0.291	0.452	0.279	0.154	0.245	0.353	0.37	0.213	0.169	0.887	0.754	0.488	0.352	0.26	0.813	0.936	0.557	0.381	0.311
LOU-NH91	0.797	0.849	0.83	0.782	0.756	0.965	0.887	0.987	0.908	0.727	0.733	0.771	0.731	0.727	0.688	0.727	0.531	0.717	0.491	0.697
NCI-H441	0.246	0.284	0.251	0.23	0.287	0.794	0.786	0.948	0.845	0.509	–	–	–	–	–	0.775	0.707	0.644	0.73	0.593
NCI-H522	0.643	0.706	0.594	0.74	0.683	0.768	0.839	1.22	0.75	0.795	–	–	–	–	–	–	–	–	–	–
NCI-H1299	–	–	–	–	–	–	–	–	–	–	0.956	0.956	0.943	0.968	0.972	0.999	1.07	1	1.05	1.08
NCI-H1563	–	–	–	–	–	–	–	–	–	–	0.926	1.01	0.761	0.721	0.669	0.858	0.96	0.802	0.778	0.677
NCI-H1648	0.33	0.549	0.57	–	0.539	0.435	0.357	0.424	–	0.423	–	–	–	–	–	–	–	–	–	–
NCI-H1650	0.425	0.375	0.47	0.36	0.347	0.572	0.556	0.589	0.525	0.512	0.608	0.828	0.367	0.32	0.234	–	–	–	–	–
NCI-H1703	–	–	–	–	–	–	–	–	–	–	0.988	1.32	1.04	1.05	1.36	0.331	0.394	0.348	0.332	0.359
NCI-H1792	0.535	–	0.6	0.513	0.374	–	–	–	–	–	0.928	0.874	0.999	0.909	0.756	0.634	0.755	0.898	0.706	0.456
NCI-H2228	–	–	–	–	–	0.844	0.821	0.616	0.572	0.719	1.01	1.24	0.742	1	1.04	0.609	0.616	0.776	0.718	0.696
NCI-H2342	0.726	0.664	0.805	0.69	0.716	0.677	0.781	0.799	0.731	0.636	–	–	–	–	–	–	–	–	–	–
SW 900	0.418	0.356	0.515	–	0.433	0.544	0.517	0.453	–	0.647	–	–	–	–	–	–	–	–	–	–
